Several values for one entry are separate records, joined by “and”; a condition that tells them apart may be missing. Equal entries are not always repeated.
Tests used:
Test in all cases: biochemical
Format in all cases: biochemical
various kinases [1] = target: T1, various kinases (Homo sapiens, UniProt Q9BZL6); settings: kinase PRKD2 (PKD2); ZLYTE
T1 sequence (Q9BZL6 1-878): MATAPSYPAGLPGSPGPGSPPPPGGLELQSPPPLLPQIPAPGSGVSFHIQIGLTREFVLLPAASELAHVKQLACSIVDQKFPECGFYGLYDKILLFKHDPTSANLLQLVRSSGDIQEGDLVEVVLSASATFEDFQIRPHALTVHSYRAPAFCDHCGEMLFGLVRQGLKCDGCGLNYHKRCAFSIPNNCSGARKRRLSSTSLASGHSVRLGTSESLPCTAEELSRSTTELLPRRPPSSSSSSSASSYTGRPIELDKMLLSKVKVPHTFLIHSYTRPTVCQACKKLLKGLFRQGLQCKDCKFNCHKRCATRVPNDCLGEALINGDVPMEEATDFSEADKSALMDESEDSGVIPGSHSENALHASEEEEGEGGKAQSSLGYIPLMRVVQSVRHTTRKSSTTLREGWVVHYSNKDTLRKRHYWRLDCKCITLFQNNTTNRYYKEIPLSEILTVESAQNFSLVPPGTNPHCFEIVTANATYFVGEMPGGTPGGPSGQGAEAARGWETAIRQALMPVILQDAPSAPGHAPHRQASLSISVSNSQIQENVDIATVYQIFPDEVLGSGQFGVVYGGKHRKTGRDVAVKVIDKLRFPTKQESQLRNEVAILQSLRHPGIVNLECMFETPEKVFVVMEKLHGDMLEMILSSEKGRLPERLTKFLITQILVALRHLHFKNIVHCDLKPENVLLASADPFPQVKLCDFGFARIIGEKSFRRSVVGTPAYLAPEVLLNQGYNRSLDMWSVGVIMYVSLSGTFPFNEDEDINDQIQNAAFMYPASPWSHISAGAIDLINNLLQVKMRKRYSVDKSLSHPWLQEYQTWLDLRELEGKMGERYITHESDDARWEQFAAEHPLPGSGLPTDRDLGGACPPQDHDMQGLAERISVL

various kinases [2] = target: various kinases (Homo sapiens, UniProt Q9H0K1); settings: kinase SNF1LK2; ZLYTE
various kinases [3] = target: various kinases (Homo sapiens, UniProt O14920); settings: IKBKB (IKK beta)
various kinases [4] = target: various kinases (Homo sapiens, UniProt P00519, F317L); settings: ABL1 F317L
various kinases [5] = target: various kinases (Homo sapiens, UniProt P07948); settings: LYN A
various kinases [6] = target: T2, various kinases (Homo sapiens, UniProt Q9BXA7); settings: kinase STK22D (TSSK1); ZLYTE
T2 sequence (Q9BXA7 1-367): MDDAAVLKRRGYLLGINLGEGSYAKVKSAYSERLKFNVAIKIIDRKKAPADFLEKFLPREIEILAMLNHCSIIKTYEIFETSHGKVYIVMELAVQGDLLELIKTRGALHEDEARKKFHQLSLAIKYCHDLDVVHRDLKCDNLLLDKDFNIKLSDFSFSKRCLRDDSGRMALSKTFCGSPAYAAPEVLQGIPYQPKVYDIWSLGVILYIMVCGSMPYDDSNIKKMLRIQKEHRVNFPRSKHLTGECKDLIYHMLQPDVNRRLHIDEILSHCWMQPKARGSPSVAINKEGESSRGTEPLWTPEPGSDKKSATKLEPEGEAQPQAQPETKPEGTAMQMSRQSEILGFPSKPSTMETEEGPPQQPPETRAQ

various kinases [7] = target: various kinases (Homo sapiens, UniProt P51451); settings: BLK
various kinases [8] = target: various kinases (Homo sapiens, UniProt Q04759); settings: kinase PRKCQ (PKC theta); ZLYTE
various kinases [9] = target: various kinases (Homo sapiens, UniProt P53779); settings: MAPK10 (JNK3)
various kinases [10] = target: various kinases (Homo sapiens, UniProt O60674)
various kinases [11] = target: various kinases (Homo sapiens, UniProt P45983); settings: MAPK8 (JNK1)
various kinases [12] = target: various kinases (Homo sapiens, UniProt P16591); settings: FER
various kinases [13] = target: various kinases (Homo sapiens, UniProt P49760); settings: CLK2
various kinases [14] = target: various kinases (Homo sapiens, UniProt P29323); settings: EPHB2
various kinases [15] = target: various kinases (Homo sapiens, UniProt O15264); settings: MAPK13 (p38 delta)
various kinases [16] = target: various kinases (Homo sapiens, UniProt Q56UN5); settings: MAP3K19 (YSK4)
various kinases [17] = target: various kinases (Homo sapiens, UniProt P07949, A883F); settings: kinase RET A883F; ZLYTE
various kinases [18] = target: various kinases (Homo sapiens, UniProt Q07002); settings: CDK18/cyclin Y
various kinases [19] = target: various kinases (Homo sapiens, UniProt P19784); settings: CSNK2A2 (CK2 alpha 2)
various kinases [20] = target: various kinases (Homo sapiens, UniProt P31751); settings: AKT2 (PKB beta)
various kinases [21] = target: various kinases (Homo sapiens, UniProt Q96SB4); settings: kinase SRPK1; ZLYTE
various kinases [22] = target: various kinases (Homo sapiens, UniProt Q8NE63); settings: HIPK4

various kinases (Homo sapiens, UniProt Q04759), sequence (Q04759 whole entry): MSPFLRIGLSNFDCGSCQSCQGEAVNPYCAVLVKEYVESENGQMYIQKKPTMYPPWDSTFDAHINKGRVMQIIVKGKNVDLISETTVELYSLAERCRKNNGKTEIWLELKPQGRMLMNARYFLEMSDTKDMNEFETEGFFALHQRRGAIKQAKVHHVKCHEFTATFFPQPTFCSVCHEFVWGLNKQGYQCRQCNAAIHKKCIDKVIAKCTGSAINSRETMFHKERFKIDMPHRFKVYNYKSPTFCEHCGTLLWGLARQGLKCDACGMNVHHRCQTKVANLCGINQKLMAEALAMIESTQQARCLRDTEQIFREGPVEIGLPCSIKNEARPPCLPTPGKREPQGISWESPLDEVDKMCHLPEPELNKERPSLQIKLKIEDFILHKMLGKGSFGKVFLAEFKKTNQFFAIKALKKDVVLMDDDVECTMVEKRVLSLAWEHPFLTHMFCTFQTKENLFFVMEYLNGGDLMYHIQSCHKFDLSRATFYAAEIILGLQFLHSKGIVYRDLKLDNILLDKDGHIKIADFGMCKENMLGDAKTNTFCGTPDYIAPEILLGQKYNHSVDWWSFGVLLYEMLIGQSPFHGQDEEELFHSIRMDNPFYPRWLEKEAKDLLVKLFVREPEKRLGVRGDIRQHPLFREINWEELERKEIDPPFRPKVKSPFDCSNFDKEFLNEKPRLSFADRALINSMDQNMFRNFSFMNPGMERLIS
various kinases (Homo sapiens, UniProt Q9H0K1), sequence (Q9H0K1 whole entry): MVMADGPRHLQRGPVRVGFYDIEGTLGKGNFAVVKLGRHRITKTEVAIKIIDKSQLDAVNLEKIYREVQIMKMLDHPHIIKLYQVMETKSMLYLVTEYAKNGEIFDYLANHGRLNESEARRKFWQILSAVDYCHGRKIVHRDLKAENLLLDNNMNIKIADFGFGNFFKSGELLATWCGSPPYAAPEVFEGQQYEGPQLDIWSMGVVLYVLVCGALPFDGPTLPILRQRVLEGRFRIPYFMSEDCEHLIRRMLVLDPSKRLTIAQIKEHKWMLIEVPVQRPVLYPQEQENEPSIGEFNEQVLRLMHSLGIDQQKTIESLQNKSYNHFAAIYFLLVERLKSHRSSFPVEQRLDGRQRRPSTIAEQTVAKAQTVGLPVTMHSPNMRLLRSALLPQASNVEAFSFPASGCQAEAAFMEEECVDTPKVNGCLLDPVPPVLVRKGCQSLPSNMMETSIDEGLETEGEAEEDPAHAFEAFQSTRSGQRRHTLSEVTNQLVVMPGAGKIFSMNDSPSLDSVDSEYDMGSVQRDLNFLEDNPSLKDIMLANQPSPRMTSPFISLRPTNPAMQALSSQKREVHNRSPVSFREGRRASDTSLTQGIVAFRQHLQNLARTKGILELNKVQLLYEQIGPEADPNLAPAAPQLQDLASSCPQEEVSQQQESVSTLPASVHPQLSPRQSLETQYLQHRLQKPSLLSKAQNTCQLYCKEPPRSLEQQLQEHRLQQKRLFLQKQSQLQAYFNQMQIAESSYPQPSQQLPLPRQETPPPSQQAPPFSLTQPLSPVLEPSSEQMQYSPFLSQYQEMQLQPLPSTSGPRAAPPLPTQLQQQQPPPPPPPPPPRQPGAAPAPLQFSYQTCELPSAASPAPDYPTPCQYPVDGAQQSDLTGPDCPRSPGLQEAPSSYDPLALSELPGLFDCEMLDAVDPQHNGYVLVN
various kinases (Homo sapiens, UniProt Q96SB4), sequence (Q96SB4 whole entry): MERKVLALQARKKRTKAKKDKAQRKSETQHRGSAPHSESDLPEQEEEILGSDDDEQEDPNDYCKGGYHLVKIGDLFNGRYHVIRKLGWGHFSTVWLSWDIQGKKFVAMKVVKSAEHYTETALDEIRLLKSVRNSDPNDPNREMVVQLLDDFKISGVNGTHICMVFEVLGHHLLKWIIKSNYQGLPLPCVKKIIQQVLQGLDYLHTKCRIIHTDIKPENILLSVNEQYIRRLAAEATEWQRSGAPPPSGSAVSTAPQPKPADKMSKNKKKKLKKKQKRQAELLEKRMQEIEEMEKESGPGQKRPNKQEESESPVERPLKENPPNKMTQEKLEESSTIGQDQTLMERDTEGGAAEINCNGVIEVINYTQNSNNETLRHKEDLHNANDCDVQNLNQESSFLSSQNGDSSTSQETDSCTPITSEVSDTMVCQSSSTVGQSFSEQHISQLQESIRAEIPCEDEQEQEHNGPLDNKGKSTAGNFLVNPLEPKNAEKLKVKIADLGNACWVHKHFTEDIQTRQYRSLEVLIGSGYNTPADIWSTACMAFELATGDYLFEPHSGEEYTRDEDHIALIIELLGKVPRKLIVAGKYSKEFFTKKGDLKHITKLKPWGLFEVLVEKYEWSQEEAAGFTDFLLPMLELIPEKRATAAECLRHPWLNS
various kinases (Homo sapiens, UniProt P07949, A883F), sequence (P07949 29-1114 A883F): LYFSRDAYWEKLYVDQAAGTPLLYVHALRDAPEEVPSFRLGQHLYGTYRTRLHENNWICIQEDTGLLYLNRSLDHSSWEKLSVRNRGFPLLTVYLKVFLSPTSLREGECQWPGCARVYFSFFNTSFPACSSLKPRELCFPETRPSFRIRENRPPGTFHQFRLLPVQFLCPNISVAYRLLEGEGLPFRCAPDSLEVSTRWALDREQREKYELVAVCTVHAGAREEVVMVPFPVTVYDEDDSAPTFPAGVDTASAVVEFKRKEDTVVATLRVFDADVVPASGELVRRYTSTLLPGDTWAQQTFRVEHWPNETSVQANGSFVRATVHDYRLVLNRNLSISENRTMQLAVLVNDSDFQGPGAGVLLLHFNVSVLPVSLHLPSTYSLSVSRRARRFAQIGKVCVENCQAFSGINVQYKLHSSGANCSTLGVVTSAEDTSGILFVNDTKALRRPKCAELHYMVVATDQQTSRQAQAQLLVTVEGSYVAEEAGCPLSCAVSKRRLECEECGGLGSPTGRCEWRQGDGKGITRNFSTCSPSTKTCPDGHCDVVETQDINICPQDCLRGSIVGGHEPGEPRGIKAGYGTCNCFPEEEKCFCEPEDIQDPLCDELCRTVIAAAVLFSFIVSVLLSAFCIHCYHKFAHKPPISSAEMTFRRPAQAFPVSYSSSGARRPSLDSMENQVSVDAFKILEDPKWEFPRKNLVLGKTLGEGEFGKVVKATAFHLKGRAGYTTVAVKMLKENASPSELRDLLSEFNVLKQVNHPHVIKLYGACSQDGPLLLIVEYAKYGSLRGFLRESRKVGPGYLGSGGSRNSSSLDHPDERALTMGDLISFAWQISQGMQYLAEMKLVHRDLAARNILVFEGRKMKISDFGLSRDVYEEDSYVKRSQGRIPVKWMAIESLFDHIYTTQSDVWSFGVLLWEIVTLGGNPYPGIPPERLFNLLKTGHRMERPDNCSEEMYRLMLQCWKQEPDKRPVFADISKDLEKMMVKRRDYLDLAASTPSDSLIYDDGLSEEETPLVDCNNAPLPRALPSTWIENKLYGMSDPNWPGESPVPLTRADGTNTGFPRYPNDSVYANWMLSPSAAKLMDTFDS
various kinases (Homo sapiens, UniProt P07948), sequence (P07948 whole entry): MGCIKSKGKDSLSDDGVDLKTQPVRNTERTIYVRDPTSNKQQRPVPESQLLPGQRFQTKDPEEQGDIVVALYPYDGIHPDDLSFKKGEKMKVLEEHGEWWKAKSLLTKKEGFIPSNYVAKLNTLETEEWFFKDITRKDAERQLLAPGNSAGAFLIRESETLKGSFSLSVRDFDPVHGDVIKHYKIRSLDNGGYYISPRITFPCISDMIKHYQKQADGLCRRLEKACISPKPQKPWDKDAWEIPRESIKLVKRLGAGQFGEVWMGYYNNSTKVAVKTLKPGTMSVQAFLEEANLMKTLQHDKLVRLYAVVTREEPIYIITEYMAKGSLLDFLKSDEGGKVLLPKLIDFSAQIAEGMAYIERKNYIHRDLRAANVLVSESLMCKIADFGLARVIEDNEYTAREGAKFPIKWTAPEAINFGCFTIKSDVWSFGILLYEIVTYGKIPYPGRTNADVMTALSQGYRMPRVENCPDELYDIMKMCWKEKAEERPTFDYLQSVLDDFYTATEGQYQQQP
various kinases (Homo sapiens, UniProt P49760), sequence (P49760 whole entry): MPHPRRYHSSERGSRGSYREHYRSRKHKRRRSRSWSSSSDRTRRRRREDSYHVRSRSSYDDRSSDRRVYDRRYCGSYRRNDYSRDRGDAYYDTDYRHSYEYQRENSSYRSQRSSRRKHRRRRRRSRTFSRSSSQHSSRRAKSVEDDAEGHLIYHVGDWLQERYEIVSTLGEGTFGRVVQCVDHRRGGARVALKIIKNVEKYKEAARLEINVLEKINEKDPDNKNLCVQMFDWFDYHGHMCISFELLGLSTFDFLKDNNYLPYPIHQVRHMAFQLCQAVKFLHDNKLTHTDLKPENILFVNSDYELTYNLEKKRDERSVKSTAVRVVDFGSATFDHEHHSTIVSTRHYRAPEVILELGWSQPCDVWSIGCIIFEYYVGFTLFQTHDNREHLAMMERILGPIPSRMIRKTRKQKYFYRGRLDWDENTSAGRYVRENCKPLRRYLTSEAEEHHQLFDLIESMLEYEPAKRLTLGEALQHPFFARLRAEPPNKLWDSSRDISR
various kinases (Homo sapiens, UniProt Q07002), sequence (Q07002 whole entry): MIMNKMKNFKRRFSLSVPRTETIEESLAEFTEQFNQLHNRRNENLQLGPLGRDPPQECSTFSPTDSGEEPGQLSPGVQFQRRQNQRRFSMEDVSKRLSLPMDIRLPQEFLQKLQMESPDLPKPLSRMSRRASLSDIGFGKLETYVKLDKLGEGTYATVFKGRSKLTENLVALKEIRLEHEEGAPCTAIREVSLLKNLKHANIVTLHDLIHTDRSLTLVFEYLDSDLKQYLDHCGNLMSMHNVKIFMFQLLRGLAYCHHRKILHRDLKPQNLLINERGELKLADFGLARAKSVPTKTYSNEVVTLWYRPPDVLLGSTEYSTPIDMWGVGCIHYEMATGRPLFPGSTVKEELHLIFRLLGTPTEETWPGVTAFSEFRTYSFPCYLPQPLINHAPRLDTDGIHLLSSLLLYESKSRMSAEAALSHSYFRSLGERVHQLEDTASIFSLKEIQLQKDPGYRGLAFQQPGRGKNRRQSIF

## COc1ccc2c(c1)[C@]1(C[C@H]1c1ccc3c(/C=C/c4ccc(CN5C[C@@H](C)O[C@@H](C)C5)cc4)n[nH]c3c1)C(=O)N2 [CFI-400945]
Various kinases [1]
  % Inhibition Average: 2%
  % Inhibition Duplicate #1: 0%
  % Inhibition Duplicate #2: 4%
Various kinases [2]
  % Inhibition Average: 5%
  % Inhibition Duplicate #1: 4%
  % Inhibition Duplicate #2: 5%
Various kinases [3]
  % Inhibition: 5% and 4%
Various kinases [4]
  % Inhibition: 13% and 16%
Various kinases [5]
  % Inhibition: 11% and 14%
Various kinases [6]
  % Inhibition Average: 6%
  % Inhibition Duplicate #1: 7%
  % Inhibition Duplicate #2: 5%
Various kinases [7]
  % Inhibition: 9% and 14%
Various kinases [8]
  % Inhibition Average: 7%
  % Inhibition Duplicate #1: 1%
  % Inhibition Duplicate #2: 13%
Various kinases [9]
  % Inhibition: 5%
Various kinases [10]; JAK2
  % Inhibition: 9%
Various kinases [10]; JAK2 JH1 JH2
  % Inhibition: 7%
Various kinases [11]
  % Inhibition: -3% and -1%
Various kinases [12]
  % Inhibition: 7% and 11%
Various kinases [13]
  % Inhibition: 0% and 7%
Various kinases [14]
  % Inhibition: 5%
Various kinases [15]
  % Inhibition: 1% and 4%
Various kinases [16]
  % Inhibition: 7% and 4%
Various kinases [17]
  % Inhibition Average: 7%
  % Inhibition Duplicate #1: 9%
  % Inhibition Duplicate #2: 4%
Various kinases [18]
  % Inhibition: 5% and 4%
Various kinases [19]
  % Inhibition: -1% and 0%
Various kinases [20]
  % Inhibition: 3%
Various kinases [21]
  % Inhibition Average: 5%
  % Inhibition Duplicate #1: 6%
  % Inhibition Duplicate #2: 3%
Various kinases [22]
  % Inhibition: -1% and 2%

Source: article PMC5762315, “Inhibition of polo-like kinase 4 (PLK4): a new therapeutic option for rhabdoid tumors and pediatric medulloblastoma” (Oncotarget, 2017)
